Measurements: paper PMC7822874, “Chemoprotective antimalarials identified through quantitative high-throughput screening of Plasmodium blood and liver stage parasites” (Scientific Reports, 2021)

Tested on: Plasmodium falciparum Dd2 asexual blood stage parasites
Test: microbe, parasite or virus in culture
Parameters: species or system Plasmodium falciparum Dd2 in human erythrocytes; single determination (one 11-point concentration-response curve)
Conditions: Plasmodium falciparum, DD2, Erythrocyte, 72 h; read-out: AC50

Row | Compound | AC50 [µM]
1 | COc1cc(C(=O)NC2CCN(c3cc(-c4ccccc4)n[nH]3)CC2)cc(OC)c1OC [NCGC00436906-01] | 5.96
2 | Cc1cccc(N2CCN(c3cccc(C)c3)C2c2cccnc2)c1 [MLS000105583-01] | 5.96
3 | CCc1c(C)c(C#N)c2nc3ccccc3n2c1NCC1CCCO1 (centres unmarked) [MLS000556827-01] | 2.99
4 | Cc1nc(-c2ccc(F)cc2)n(CC(=O)Nc2cccc(Cl)c2)c(=O)c1CCO [NCGC00470975-01] | 15
5 | COc1ccc(C)cc1NCc1cc(=O)oc2cc(-c3ccccc3)c(O)cc12 [MLS000331048-01] | 5.31
6 | CC(=O)Nc1ccc(Nc2cc(C)nc(Nc3ccc(NC(C)=O)cc3)n2)cc1 [MLS001359830-01] | 3.35
7 | Cc1ccc(NC(=O)N2CCC(N3C(=O)C4(CCCCC4)C3c3ccncc3)CC2)cc1C (centres unmarked) [NCGC00461123-01] | 7.5
8 | CC1CCN(c2nc3c([S+](=O)([O-])c4ccccc4)nnn3c3ccc(Cl)cc23)CC1 [NCGC00112222-01] | 2.66
9 | C[C@H]1[C@@H]2[C@@H](O)C([C@H](C)C(=O)NCc3cc(F)cc(F)c3)CC[C@@]2(C)CC[C@@H]1NC(=O)c1cncnc1 (some centres unmarked) [NCGC00395377-01] | 4.22
10 | Cn1cnc2ccc(-c3cccc(O)c3)nc2c1=O [NCGC00414672-01] | 6.11
11 | Oc1ccc(-c2nc(C3CC3)nc3c2CN(CC2CCCCC2)CC3)cc1 [NCGC00480438-01] | 6.68
12 | COc1ccc(-c2nnc(C[C@@H]3C[C@@H](C(C)C)[C@H](CN4CCC(O)CC4)C=C3C)o2)cc1 [NCGC00394772-01] | 9.44
13 | CCN(CC)c1cc(C)c2cc(NC(=O)/C=C/c3cc(OC)c(OC)c(OC)c3)ccc2n1 [NCGC00104274-01] | 4.73
14 | Cn1cc(CN2CCCC(CO)(Cc3ccccc3)C2)cn1 (centres unmarked) [MLS000732297-01] | 5.96
15 | O=C1N=C(NC2CCCCC2)C2(CCN(Cc3ccccc3)C2)N1c1cc(F)cc(F)c1 (centres unmarked) [NCGC00374188-01] | 4.22
16 | COc1ccc(CCn2c(=N)c(C(=O)NCc3ccco3)cc3c(=O)n4cccc(C)c4nc32)cc1 [MLS000040240-01] | 1.68
17 | Cc1cc(C(=O)CN2C(=O)NC(c3ccccc3)(c3ccccc3)C2=O)c(C)n1Cc1ccco1 [MLS000056256-01] | 8.41
18 | COc1ccc(C(=O)N[C@@H]2CN(Cc3cccc(OC)c3)CCC[C@H]2O)cc1 [NCGC00401653-01] | 10.9
19 | CCN1CCN(c2cc(C)c3cc(NC(=O)/C=C/c4cccc(OC)c4OC)ccc3n2)CC1 [NCGC00103854-01] | 5.96

Row | Compound | AC50 [µM]
20 | Cc1cc(N(C)Cc2ccccc2)nc2cc(O)ccc12 [MLS001199318-01] | 2.37
21 | COC(=O)[C@@H]1Cc2ncn(Cc3ccc(OC)cc3)c2CN1[S+](C)(=O)[O-] [NCGC00401682-01] | 19.3
22 | CN(Cc1ccccc1)Cc1cc(C[C@@H]2CC[C@H](O)[C@@H](CNCc3ccccc3)O2)no1 [NCGC00393466-01] | 4.73
23 | CC(C)Oc1ccc(C(=O)Nc2ccc3oc(-c4ccncc4)nc3c2)cc1 [NCGC00098730-01] | 8.41
24 | CCN(CC)C(=O)C[C@@H]1c2nc(NC(=O)c3cccc(F)c3)sc2C[C@@H]2[C@](C)(CO)[C@H](O)CC[C@]21C [NCGC00394316-01] | 9.44
25 | O=C(c1cccc(Cl)c1)N1CCC(c2nc(O)c3nnn(Cc4ccc(F)cc4F)c3n2)CC1 [NCGC00116055-01] | 5.96
26 | Fc1ccccc1CN1CCC[C@H]1c1nc(-c2ccnc(N3CCOCC3)c2)no1 [NCGC00395913-01] | 15.3
27 | Cc1ccccc1CN1C[C@@H]2C[C@@H](c3c[nH]nc3-c3ccccc3)N3CCC[C@@]23C1=O [MLS000735381-01] | 15
28 | Cc1nc(-c2cccc(Cl)c2)n(CC(=O)Nc2ccc(C(F)(F)F)cc2)c(=O)c1CCO [NCGC00471081-01] | 13.3
29 | C=C(C)COc1ccc(-c2n[nH]cc2Oc2ccccc2OCC)c(O)c1 [MLS000083085-01] | 2.99
30 | CCOC(=O)C1CCCN(C(=O)c2ccc3c(c2)N(Cc2ccccc2)C(=O)c2ccccc2[S+]3(=O)[O-])C1 (centres unmarked) [NCGC00109839-01] | 6.68
31 | CCC(Oc1ccccc1)C(=O)Nc1cc(C(F)(F)F)ccc1N1CCOCC1 (centres unmarked) [MLS001099270-01] | 7.5
32 | COc1ncccc1-c1nc(-c2c(C)noc2C)cc2c1cc(-c1ccccc1)n2C [NCGC00417163-01] | 13.7
33 | COc1ccccc1N1CCN(C(=O)C2CCCN(S(=O)(=O)c3ccc4c(c3)oc(=O)n4C)C2)CC1 (centres unmarked) [NCGC00140732-01] | 5.96
34 | Cc1ccc2c(n1)N(C)[C@H](CO)CCN(Cc1ccc(C(F)(F)F)cc1)C2 [NCGC00395284-01] | 15.3
35 | COc1ccc(O)c(C(=O)c2cnc3c(c2)c(-c2ccc(F)cc2)c(C#N)c(=O)n3C)c1 [MLS001003111-01] | 5.96
36 | COC(=O)[C@H](Cc1ccc(OC)cc1)NC(=O)[C@H]1CN(C(=O)c2ccc(N(C)C)cc2)CCN1C(=O)C1CCCCC1 [NCGC00398660-01] | 0.668
37 | CC(C)Nc1nccc(C2(c3ccccc3Cl)CCNCC2)n1 [NCGC00440810-01] | 9.44
38 | O=C(NC1CC1)c1ccc(CSCc2cccc(F)c2)o1 [MLS000120194-01] | 8.41

Row | Compound | AC50 [µM]
39 | CN1CC2(CCCN(CC3CC3)C2)c2cc(C(=O)NCCOc3ccccc3)ccc21 (centres unmarked) [NCGC00419362-01] | 17.2
40 | CCN(CC(O)c1cccc(O)c1)C(=O)C12CC3CC(CC(C3)C1)C2 (centres unmarked) [MLS001166662-01] | 4.73
41 | O=c1c([N+](=O)[O-])cccn1Cc1ccc(F)cc1Cl [MLS000728802-01] | 4.73
42 | COCC1CN(Cc2cccc(OC(F)(F)F)c2)CC12CCNCC2 (centres unmarked) [NCGC00461844-01] | 15
43 | COc1ccc(CCNC(=O)CC(c2ccccc2OC)c2c[nH]c3ccccc23)cc1OC (centres unmarked) [NCGC00473331-01] | 13.3
44 | O=C(Cn1c(=O)n(Cc2ccc(C(=O)NCc3ccc4c(c3)OCO4)cc2)c(=O)c2ccccc21)Nc1cccc(Cl)c1 [NCGC00106483-01] | 5.96
45 | CCOC(=O)c1cc(C)n(CC2CCC(C(=O)Nc3cccc(Cl)c3)CC2)c1C (centres unmarked) [NCGC00141645-01] | 8.41
46 | O=C1NC2(CCN(Cc3ccc(C(F)(F)F)cc3)CC2)COc2ccccc21 [NCGC00477447-01] | 8.41
47 | CCOC(=O)N1CCc2c(sc3c2c(=O)n(CCc2ccccc2)c(=O)n3Cc2c(F)cccc2Cl)C1 [NCGC00111977-01] | 2.66
48 | COc1ccccc1C(=O)N1CCC2(CC1)c1nccn1-c1ccccc1CN2CC(C)C [NCGC00442752-01] | 11.9
49 | O=C(NCC1CCCCC1)c1cc2ccccc2cc1O [MLS001141978-01] | 9.44
50 | COc1ccc(-c2c3c(nc4sc(C(=O)Nc5ccc(F)cc5)c(N)c24)CC(C)(C)CC3=O)cc1 [NCGC00100718-01] | 0.944
51 | CC[C@H]1C[N@@]2CC[C@H]1C[C@@H]2CNCc1ccc(SC)cc1 [NCGC00392466-01] | 4.33
52 | CC(C)c1ccc(-c2noc(SCC(=O)N(C)c3ccc(F)cc3)n2)cc1 [NCGC00127932-01] | 0.944
53 | CN1CCN(c2ccc(NC(=O)c3ccc(-c4cccc([N+](=O)[O-])c4)o3)cc2)CC1 [MLS000663772-01] | 4.73
54 | CCN(CC)c1ccc(NC(=O)COc2ccccc2C#N)cc1S(=O)(=O)Nc1ccccc1OC [MLS000339599-01] | 7.5
55 | CC(C)C(=O)NCC1CN(Cc2ccccc2)C(=O)c2c(ccnc2-c2ccc(OCC(=O)O)cc2)O1 (centres unmarked) [NCGC00420601-01] | 2.11
56 | COc1ccccc1CNC[C@H]1O[C@H](Cc2cc(CN(C)Cc3ccccc3)on2)CC[C@@H]1O [NCGC00393289-01] | 2.99
